Patent US20250064773A1, “TARGETING ERO1 ALPHA WITH AURONE DERIVATIVES” (West Virginia University Board of Governors on behalf of …, priority 2021, published 2025)

System: normal lung epithelial cell line Beas-2B
Experiment: MTT viability assay, Beas-2B
Format: cell-based
Conditions: Homo sapiens, Normal Lung Epithelium
From the text: Cell Lines: PC-9 cell line used was obtained from Sigma Aldrich and grown in RPMI 1640 medium with 10% fetal bovine serum and 1% penicillin/streptomycin. HCC4006, U266, MM1.s, and Beas-2B cell lines were obtained from ATCC and cultured in either RPMI 1640 or DMEM with 10% fetal bovine serum and 1% penicillin/streptomycin. All cell lines were also checked for mycoplasma every six months and subjected to short tandem repeat (STR) analysis for cell line validation. CRISPR Cas9: CRISPR Guide RNA 2 targeting ERO1α and CRISPR Guide RNA 4 were purchased from Genscript in the pLentiCRISPR V2 plasmid containing puromycin/ampicillin selection marker. Lentivirus was made from HEK 293T cells by co-transfection with GuideRNA of interest, pVSVG, and pPAX2 plasmids. […] Plate was then read on the BioTek Cytation 5 at 530/590 nm. […] Plate was then read at 570 nm. Treated wells were all compared to DMSO control wells to calculate percent growth inhibition and the IC50 was calculated using GraphPad (log(inhibitor) vs growth inhibition). […] Images were then quantified using ImageJ. […] Cells were aliquoted at 1 million cells per PCR tube in PBS and heated in Bio-Rad T100 thermal cycler at indicated temperatures (RT, 46° C., 48° C., 50° C., 52° C., 54° C., 56°, 58° C., and 60° C.) for 3 minutes and aggregation temperature was determined by western blot analysis. […]

CN(C)c1ccc(/C=C2\Oc3cc(O)ccc3C2=O)cc1 [Compound T151742]
IC50: > 100 µM
